Measured values reported in US20230338316A1, “ABBAPOLINS AS INHIBITORS AND DEGRADERS OF POLO-LIKE KINASES” (UNIVERSITY OF SOUTH CAROLINA, priority 2022, published 2023).

Experiments:
[1] = tested on: HeLa cervical cancer cells; test: MTT cell viability assay, HeLa; type: cell-based; settings: p53 MT, PTEN WT
Source text: HeLa cervical cancer cells were obtained from ATCC (Manassas, VA). Histone H2B GFP-labeled HeLa cells (HeLa-H2B-GFP) were kindly provided by Dr. Geoffrey Wahl (Gene Expression Laboratory, Salk Institute), and were confirmed as >95% GFP positive by FACS (data not shown) but were not otherwise authenticated. Cells were maintained in DMEM (Invitrogen™, Carlsebad, CA) supplemented with 10% FBS or Corning® Nu-serum™ (BD™ Biosciences, Franklin Lakes, NJ) and 1% penicillin/streptomycin (Invitrogen™) in a humidified incubator and 5% CO2 at 37° C.
Exponentially growing cells were plated in 96-well dishes. Dose response curves were used to treat cells for 72 hours with inhibitors. Following the three-day treatment, cell viability was measured using the MTT (3-(4,5-dimethylthiazol-2-yl)-2,5-diphenyltetrazolium bromide) colorimetric assay. Cells were incubated for 3 hours with MTT allowing viable cells to metabolize the tetrazolium dye to a purple colored solution. Absorbance measurements (595 nm) were quantified using a DTX 880 plate reader and IC50 values were generated for FLIPs.

apoptosis = test: Cell cycle analysis and caspase apoptosis assay; type: cell-based; settings: versus negative control
Source text: Disclosed small molecule inhibitors can also encourage apoptosis.

[2] = Pharmacokinetics after oral gavage; type: in vivo, swiss webster mice
Experimental: FIG. 3 graphically illustrates pharmacokinetics of SCCP ID No. 6359 in swiss webster mice at a dosage of 50 mg/kg.
These reasonable PK values of the lead abbapolin compounds tested in vivo are promising and indicate optimization will lead to further improvements.

NCI-H522 = test: Single dose cell viability assay, NCI-H522; type: cell-based; settings: NCI-H522 (NSCLC), single dose 10 μM
Experimental: (§1) Lead abbapolin compounds were tested in multiple cancer cell lines, including non-small cell lung cancer (NSCLC) cells, melanoma cells, colon cancer cells, central nervous system (CNS) cancer cells, prostate cancer cells, renal cancer cells, and breast cancer cells. Each of these cancer cells lines were sensitive to the lead abbapolin compounds in a cell viability assay, including 6184 (Table 3), 6277 (Table 4), 6279 (Table 5), 6355 (Table 6), 6359 (Table 7), 6369 (Table 8), and 6421 (Table 9).

UO-31 = test: Single dose cell viability assay, UO-31; type: cell-based; settings: UO-31 (Renal), single dose 10 μM
Experimental: as §1

HL-60(TB) = test: Single dose cell viability assay, HL-60(TB); type: cell-based; settings: HL-60(TB) (Leukemia), single dose 10 μM
Experimental: as §1

PLK1 [3] = target: T1, PLK1 (Homo sapiens, UniProt P53350); test: Cellular thermal shift assay (CETSA); type: cell-based; parameters: endogenous in cells; host or cells: PC3 prostate cancer cells
Experimental: Cellular thermal shift assay (CETSA) was performed with PC3 cells cultured in RPMI medium supplemented with 10% FBS. For an initial determination of the melting profile of PLK1 AND PLK3, cells dispensed into 96-well PCR plates in the above medium (6000 cells/well in 50 μL) were subjected to temperature gradient (38-60° C.) for 10 min. […] Centrifugation was performed at 14000 rpm to sediment the denatured protein content. Supernatant was collected and subjected to SDS-PAGE, and immunodetection was performed using anti-PLK1 and anti-PLK3 antibodies. PLK1 and PLK3 bands were quantified on a LI-COR C-Digit Blot Scanner, and Tagg and Tagg values were calculated for both proteins. In subsequent experiments, cells were treated at increasing doses (3.0, 1.0, 0.3, 0.1, 0.03 μM) of inhibitors together with DMSO control, for 2 h. Cells were then subjected to heat shock at Tagg for 10 min, and unstable protein was removed by centrifugation step. Following immuno-blotting, bands of stable PLK1 and PLK3 were quantified, normalized to loading control and plotted using GraphPad Prism software. EC50 values for inhibitors were calculated. […] The EC50 of the peptides were determined from the curve fit of the dose response.

PLK1 [4] = target: T1, PLK1; test: PLK1 degradation in PC3 cells; type: cell-based; parameters: endogenous in cells; host or cells: PC3 prostate cancer cells; settings: PC3 cell line, 24 hours
Experimental: For example, PC3 cells were treated with varying dosages of abbapolin 6369, and percent of PLK1 degradation was measured at 24 hours (FIGS. 8A-8B). HeLa cells were treated with 25 μM abbapolin 6369, and time points shown in the assay were 24 hours, 48 hours, and 72 hours (FIGS. 9A-9B). PC3 cells were treated with varying dosages of abbapolin 6329, and percent of PLK1 degradation was measured at 24 hours (FIGS. […]). HeLa cells were treated with varying dosages of abbapolin 6329, and time points shown in the assay were 24 hours, 48 hours, and 72 hours (FIGS. 11A-11B).

T1 sequence (P53350 whole entry): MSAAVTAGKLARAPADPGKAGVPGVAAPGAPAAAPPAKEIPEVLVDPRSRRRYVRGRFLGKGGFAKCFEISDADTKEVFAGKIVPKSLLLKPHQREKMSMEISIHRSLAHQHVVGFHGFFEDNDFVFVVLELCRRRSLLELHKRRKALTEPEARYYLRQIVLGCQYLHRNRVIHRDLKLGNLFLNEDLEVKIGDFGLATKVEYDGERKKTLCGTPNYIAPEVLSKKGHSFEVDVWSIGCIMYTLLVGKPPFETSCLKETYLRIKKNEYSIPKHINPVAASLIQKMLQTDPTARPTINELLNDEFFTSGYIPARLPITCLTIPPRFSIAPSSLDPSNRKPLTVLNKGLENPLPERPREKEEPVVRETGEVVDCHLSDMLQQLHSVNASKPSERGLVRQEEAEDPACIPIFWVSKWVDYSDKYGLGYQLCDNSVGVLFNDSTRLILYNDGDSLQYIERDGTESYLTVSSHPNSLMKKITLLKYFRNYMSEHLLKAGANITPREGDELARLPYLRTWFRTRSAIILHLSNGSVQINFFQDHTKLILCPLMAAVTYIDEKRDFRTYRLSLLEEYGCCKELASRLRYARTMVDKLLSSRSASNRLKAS

Substance: 3-(4-octylbenzamido)phenyl phosphate [compound 6369]
- IC50 [1]: 17.5 ± 2.9 µM
- levels of apoptosis (apoptosis): high levels of apoptosis
- blood levels ([2]; 50 mg/kg by oral gavage): measurable blood levels
- oral absorption / PK ([2]; mouse, in vivo, po): low oral absorption
- Cells Remaining (%) (NCI-H522): 33.06%
- Cells Remaining (%) (UO-31): 46.64%
- Cells Remaining (%) (HL-60(TB)): 54.82%
- EC50 (PLK1 [3]): 0.15 µM
- PLK1 degradation (PLK1 [4]): degradation of PLK1
